Source: article PMC4212957, “The serodominant secreted effector protein of Salmonella, SseB, is a strong CD4 antigen containing an immunodominant epitope presented by diverse HLA class II alleles” (Immunology, 2014)

Key:
[1] = system: HLA-DR heterodimers; assay: Breadth of binding across the HLA-DR panel; parameters: species or system human; conditions: of nine HLA-DR molecules screened; competitive ELISA
Method: HLA-DR heterodimers were purified from homozygous Epstein–Barr virus B-lymphoblastoid cell lines (HPA Culture Collections, Salisbury, UK) by affinity chromatography with the monomorphic HLA-DRα monoclonal antibody, L243.[29],[30] Binding of the SseB peptide panel to the HLA-DR molecules HLA-DRB1*01:01, 03:01, 04:01, 07:01, 09:01, 11:01, 12:02, 15:01, 15:02 was assessed by competitive ELISA, as previously described, using an automated workstation.[29],[30] We evaluated the peptide concentration able to prevent binding of 50% of the labelled peptide (IC50). Data were expressed as relative affinity: ratio of the IC50 of the peptide to the IC50 of the reference peptide, which is a high binder to the HLA class II molecule. Unlabelled forms of the biotinylated peptides were used as reference peptides.
The HLA-DR peptide-binding assay used here was designed to give a strong coverage of commonly expressed alleles across diverse populations. For example, the DR1, 3, 4, 7, 11 and 1501 heterodimers cumulatively cover approximately 80% of individuals in Caucasian populations, whereas DR9, DR1202 and DR1502 are rare in Caucasian populations but are found in around a third of individuals in many South East Asian populations. Of the 18 peptides encompassing the SseB overlapping peptide library, 15 show significant HLA-DR binding (Table2). Eight peptides were able to bind specifically to only one or two alleles, but the seven other binders were able to bind more heterodimers. It is noteworthy that there are three peptides, p2, p11 and p18, with the property of binding 6, 7 and 8 different HLA-DR heterodimers, respectively. They span HLA-DRB sequences with rather diverse peptide-binding pockets.

[2] = system: draining lymph node cells of HLA-DR4 transgenic mice; assay: Murine IFN-γ ELISpot, HLA-DR4 transgenic mice primed with SseB; conditions: mouse, in vivo
Excerpt: Mice transgenic for HLA-DR1 (that is, HLA-DRA1*0101/HLA-DRB1*0101) and HLA-DR4 (that is, HLA-DRA1*0101/HLA-DRB1*0401)[24]–[26] were bred and housed in the Centre for Biological Services at the Hammersmith campus, Imperial College London, UK, in accordance with Home Office regulations and College ethics review. Both transgenic lines are maintained on a C57BL/6 background as homozygotes for knockout of murine MHC Class II H2-Aβ.[27]
HLA-DR1 or HLA-DR4 transgenic mice were primed, by subcutaneous injection into the footpad, with 25 μg of recombinant SseB protein administered as a 1 : 1 emulsion with TiterMax® Gold (CytRx Corporation, Los Angeles, CA). Ten days after priming, popliteal draining lymph nodes were harvested and stimulated, in triplicate, at 2 × 10^5 cells per well with 25 μg of SseB peptide or recombinant protein in pre-coated murine IFN-γ ELISpot plates (2BScientific, Upper Heyford, Oxfordshire, UK). Culture medium was RPMI-1640 containing 2 mM L-glutamine, 50 U/ml penicillin G, 50 μg/ml streptomycin sulphate, 50 μM β-mercaptoethanol and 10% fetal calf serum. Cells were cultured at 37° and in 5% CO2 for 72 hr before assay development using a biotinylated anti-IFN-γ antibody, a horseradish peroxidase detection antibody and TMB substrate (2BScientific). Developed plates were left to dry before spot counting using an AID ELISpot reader (Autoimmun Diagnostika GMBH). Positive epitopes for a given transgenic line were defined as those where more than half of assayed animals gave a greater number of spot-forming cells than 2 SD over the mean of the no protein/peptide control.
Fig 1 Definition of HLA-DR specific T-cell epitopes in DR1 and DR4 transgenic mice. (a) HLA-DR1 (n = 5) and (b) HLA-DR4 (n = 6) mice were footpad primed with ssEB protein in combination with TiterMax® Gold adjuvant. Draining lymph node (DLN) cells were assayed by ELISpot at day 10 for interferon-γ (IFN-γ) T-cell responses to ssEB peptides and protein. A peptide was defined as containing a T-cell epitope for DR1 or DR4 HLA molecules if more than half of the mice assayed gave a greater number of spot-forming cells than 2 SD over the mean of the no peptide/protein control. The 2 SD value for each transgenic line is shown by a dotted line.

2: SseB overlapping library peptide, residues 11–30 (QNPIVFKNSFGVSNADTGSQ) [Peptide 2]
number of different HLA-DR heterodimers bound [1]: 6

11: SseB overlapping library peptide, residues 101–120 (EDVIKYMRDNGILIDGMTID) [Peptide 11]
number of different HLA-DR heterodimers bound [1]: 7
IFN-γ ELISpot recall response / CD4 epitope in HLA-DR4 transgenic mice [2]: CD4 epitopes detected

AVLTQLTGLISKWGEISSMIAQKTYS [Peptide 18, SseB overlapping library peptide, residues 171–196]
number of different HLA-DR heterodimers bound [1]: 8
IFN-γ ELISpot recall response / CD4 epitope in HLA-DR4 transgenic mice [2]: not DR4
